From patent US11911386B2, “Methods of treating B-cell proliferative disorder” (BeiGene Switzerland GmbH, priority 2022, dated 2024)
Several values for one entry are separate records, joined by “and”; a condition that tells them apart may be missing. Equal entries are not always repeated. Where two headings read alike, the source gives them in different places.

How the values were obtained:
[1] = system: previously treated B-cell malignancies (CLL/SLL, WM, MCL, MZL); assay: Phase 2 (NCT04116437): investigator-assessed efficacy (ORR, DCR, DOR, PFS, OS); type: in vivo, human; details: for Months to BOR, median: patients who responded
Protocol: PFS and patient-reported outcomes were assessed as secondary efficacy endpoints.
The study's secondary endpoints were: • ORR, defined as the proportion of patients achieving a best overall response (BOR) of CR, CRi, nodular partial response, partial response (PR), or partial response with lymphocytosis (PR-L) in patients with CLL; CR or PR in patients with SLL, MCL, or MZL; and CR, very good partial response, PR, or minor response (MR) in patients with WM before initiation of subsequent antineoplastic therapy. • DCR, defined as the proportion of patients who attain a BOR of stable disease or better before initiation of subsequent antineoplastic therapy. • Duration of response (DOR), defined as time from […] to date of first documented disease progression or death, whichever occurs first. • PFS, defined as time from first dose date to date of first documented disease progression or death, whichever occurs first. • Time to first response, defined as time from first dose to date of first qualifying response. For example, for a patient who attained a PR-L followed by PR for subsequent assessments, time to first response was the time from first dose to date of first PR-L. • Time to BOR, defined as time from first dose to date of best of overall response.
A patient's BOR was the best response recorded throughout the study prior to initiation of any new anticancer therapy and data cutoff. In some cases, the BOR could only be stable disease (e.g., if the patient was in CR at study entry) because patients were not required to progress prior to entering the study. • ORR was the proportion of patients who attained a BOR of: • PR-L or better (CR, CRi, nodular partial response, PR, PR-L) in patients with CLL; • PR or better (CR, PR) in patients with SLL, MCL, and MZL; • MR or better (CR, very good partial response, PR, MR) in patients with WM.
Per the Safety Analysis Set, patients without postbaseline disease assessment were considered non-responders. DCR was summarized with 95% exact confidence intervals. A sensitivity analysis of DCR was conducted in patients in the Efficacy Evaluable Set; patients who died or discontinued study prior to their first disease assessment due to adverse events were classified as not achieving disease control. An additional sensitivity analysis of DCR excluded patients with low disease burden, as defined above.
The PFS distribution and its related metrics such as median PFS and landmark rates were estimated using the Kaplan-Meier method with censoring rules as defined in Table 29.
Zanubrutinib capsules were taken orally with water and with or without food. Imaging and laboratory assessments at study entry were considered baseline for response assessment; patients were not required to meet criteria for initiation of treatment at study entry.

[2] = Phase 1 DDI study: single-dose zanubrutinib PK alone and with steady-state rifabutin (NCT04470908); type: in vivo, human; details: for half-life: arithmetic mean (SD)
Source text: This study was designed, conducted, and monitored according to sponsor procedures, and complied with the ethical principles of Good Clinical Practice, International Council for Harmonisation of Technical Requirements for Pharmaceuticals for Human Use, the Declaration of Helsinki, and local regulatory requirements. All volunteers provided written, informed consent before study entry. Midlands Independent Review Board (MLIRB (now WCG IRB), Overland Park, Kansas) reviewed and approved the protocol at the respective study center.
Volunteers were screened for eligibility during the screening period (from day −28 through day −2). Those who met all the inclusion criteria and none of the exclusion criteria were admitted into the clinical research unit (CRU) on day −1 and confined to the CRU until discharge on day 13. […] Volunteers were discharged on day 13 after satisfactory completion of study-related procedures.
A single dose of rifabutin (300 mg) was given orally as 2×150 mg capsules with food on days 3-10 and in the fasted state on day 11.
Noncompartmental analysis was conducted using Phoenix® WinNonlin™ version 8.1 (Certara USA, Inc., Princeton, New Jersey, USA).
Protein precipitation was utilized to extract the analyte and internal standard from human plasma containing dipotassium ethylenediaminetetraacetic acid (K2EDTA) as an anticoagulant.
The geometric least squares mean (GLSM) and their ratios were obtained by taking the exponential of the corresponding estimates of LSM and their differences on the natural logarithm scale, where ratio=test/reference. Within-subject CV was calculated as 100×square root[exp(mean square error from the analysis model)−1].

[3] = Cohort 1 (prior ibrutinib), n = 57
[4] = Cohort 2 (prior acalabrutinib + ibrutinib), n = 7
[5] = Efficacy Evaluable Set, 68 patients
[6] = 320 mg zanubrutinib + 300 mg rifabutin (test)
[7] = 320 mg zanubrutinib + 300 mg rifabutin, median (min-max)

C=CC(=O)N1CCC([C@@H]2CCNc3c(C(N)=O)c(-c4ccc(Oc5ccccc5)cc4)nn32)CC1 [zanubrutinib, (S)-7-(1-acryloylpiperidin-4-yl)-2-(4-phenoxyphenyl)-4,5,6,7-tetrahydropyrazolo[1,5-a]pyrimidine-3-carboxamide]
DCR ([1]; 160 mg bid group): 95.0% | ORR ([1]; 160 mg bid group): 70.0% | DCR ([1]; 320 mg qd group): 91.7% | ORR ([1]; 320 mg qd group): 54.2% | BOR PD ([1]; Cohort 1): 1 (1.8) n (%) | BOR PR-L or better ([1]; Cohort 1): 36 (63.2) n (%) | BOR SD ([1]; Cohort 1): 18 (31.6) n (%) | Months to first OR, median ([1]; Cohort 1): 2.92 months | DCR (SD or better) [1, 3]: (94.7, 85.4-98.9) % | ORR (better than SD) [1, 3]: (63.2, 49.3-75.6) % | Months to BOR, median ([1]; Cohort 1): 5.5 months | BOR PD ([1]; Cohort 2): 1 (14.3) n (%) | BOR PR-L or better ([1]; Cohort 2): 5 (71.4) n (%) | BOR SD ([1]; Cohort 2): 1 (14.3) n (%) | Months to first OR, median ([1]; Cohort 2): 3.02 months | DCR (SD or better) [1, 4]: (85.7, 42.1-99.6) % | ORR (better than SD) [1, 4]: (71.4, 29.0-96.3) % | Months to BOR, median ([1]; Cohort 2): 7.9 months | BOR better than stable disease (ORR) [1, 5]: 67.6% | BOR of PR [1, 5]: 66.2% | BOR of stable disease or better (DCR) [1, 5]: 95.6% | BOR PD ([1]; Total): 3.1 n (%) and 2 (3.1) n (%) | BOR PR-L or better ([1]; Total): 41 (64.1) n (%) | BOR SD ([1]; Total): 29.7 n (%) and 19 (29.7) n (%) | Months to first OR, median ([1]; Total): 2.96 months | Months to BOR, median ([1]; Total): 5.6 months | Median DOR ([1]; additional analysis): not reached | Median PFS ([1]; additional analysis): not reached | 18-month event-free PFS rate ([1]; additional analysis, 67 patients): 83.8% | Chance of being alive after 24 months ([1]; all patients): 89.3% | Estimated probability of responding for at least 12 months ([1]; all patients): 91.8% | Median DOR ([1]; all patients): not reached | ORR ([1]; excluding eight patients ineligible for PR due to low baseline disease burden): 73.2% | 12-month event-free DOR rate ([1]; in vivo): 95.0% | Median time to first response (better than SD) ([1]; in vivo): 3.0 months | Median PFS ([1]; overall): not reached | PFS event-free rate at 18 months ([1]; overall (clinical study report cut-off)): 80.4% | Estimated probability of responding for at least 12 months ([1]; patients with WM): 100% | PFS event-free rate at 18 months ([1]; patients with WM): 100% | BOR better than stable disease ([1]; patients with WM, 11 patients): 90.9% | BOR of stable disease or better ([1]; patients with WM, 11 patients): 100% | Very good partial response ([1]; patients with WM, 11 patients): 45.5% | AUC0-t GLSM ([2]; 320 mg zanubrutinib (reference)): 2700 ng·h/mL | AUC0-t GLSM [2, 6]: 1530 ng·h/mL | Cmax GLSM [2, 6]: 253 ng/mL | Tlast [2, 7]: 36.0 (24.0-36.0) [13] h | Tmax [2, 7]: 2.0 h | Tlast ([2]; 320 mg zanubrutinib alone, median (min-max)): 36.0 (24.0-36.0) [13] h | AUC(0-t) ([2]; human, plasma, oral, 320 mg): 2700 ng·h/mL | Cmax ([2]; human, plasma, oral, 320 mg): 489 ng/mL | Vd/F ([2]; human, plasma, oral, 320 mg): 1080 L | AUC(0-inf) ([2]; human, plasma, oral, 320 mg zanubrutinib + 300 mg rifabutin (test), read-out: AUC0-∞ GLSM): 1560 ng·h/mL | half-life ([2]; human, plasma, oral, 320 mg zanubrutinib + 300 mg rifabutin): 7 h | AUC(0-inf) ([2]; human, plasma, oral, 320 mg zanubrutinib + 300 mg rifabutin, geometric mean (CV), read-out: AUC0-∞): 1590 ng·h/mL | AUC(0-inf) ([2]; human, plasma, oral, 320 mg, 320 mg zanubrutinib (reference), read-out: AUC0-∞ GLSM): 2780 ng·h/mL | half-life ([2]; human, plasma, oral, 320 mg, 320 mg zanubrutinib alone): 7.2 h | AUC(0-inf) ([2]; human, plasma, oral, 320 mg, 320 mg zanubrutinib alone, geometric mean (CV), read-out: AUC0-∞): 2780 ng·h/mL | Tmax ([2]; human, plasma, oral, 320 mg, read-out: Tmax): 1.5 h | AUC0-t within-subject CV ([2]; in vivo): 10.7% | AUC0-∞ within-subject CV ([2]; in vivo): 7.0% | Cmax within-subject CV ([2]; in vivo): 23.2% | Reduction in zanubrutinib exposure ([2]; with moderate CYP3A inducer, e.g. rifabutin): approximately 2 fold | GMR (exposure) ([2]; with vs without rifabutin): 57%
